Molecules are shown by their SMILES. Read-outs that look alike come from different tables or passages of the source.

These results are taken from US20140343000A1 (priority 2011, published 2014).

The assay relates to recombinant NL4-3 virus (Renilla luciferase in nef, Gag P373S; NLRluc) in MT-2 cells. Put plainly: whole plant or invertebrate. The note with it: Renilla. The class given is cell-based, HIV. Put shortly: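 First, reporter virus was generated in 293T cells and titered on MT-2 cells. Next, MT-2 cells were infected in the presence of serial compound dilutions for 4-5 days. Finally, cells were lysed and luciferase activity was measured to quantify inhibition.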

Where [1] appears, read: NL43, luciferase activity in cells infected for 4-5 days with NLRluc recombinants, serial dilutions of inhibitor, class symbols (key in Table 1), read-out: EC50.

Turning to `C=C(C)[C@@H]1CC[C@]2(NCCN3CCC(C(=O)N(C)C)CC3)CC[C@]3(C)[C@H](CC[C@@H]4[C@@]5(C)CC=C(c6ccc(C(=O)O)cc6)C(C)(C)[C@@H]5CC[C@]43C)[C@@H]12` [Example 171, 4-((1R,3aS,5aR,5bR,7aR,11aS,11bR,13aR,13bR)-3a-(2-(4-(dimethylcarbamoyl)piperidin-1-yl)ethylamino)-5a,5b,8,8,11a-pentamethyl-1-(prop-1-en-2-yl)-2,3,3a,4,5,5a,5b,6,7,7a,8,11,11a,11b,12,13,13a,13b-octadecahydro-1H-cyclopenta[a]chrysen-9-yl)benzoic acid], where the note is “NL43”, the EC50 is less than 100 nM.
Take `C=C(C)[C@@H]1CC[C@]2(NCCN3CCN(S(=O)(=O)c4cccnc4)CC3)CC[C@]3(C)[C@H](CC[C@@H]4[C@@]5(C)CC=C(c6ccc(C(=O)O)cc6)C(C)(C)[C@@H]5CC[C@]43C)[C@@H]12` [Example B36, 4-((1R,3aS,5aR,5bR,7aR,11aS,11bR,13aR,13bR)-5a,5b,8,8,11a-pentamethyl-1-(prop-1-en-2-yl)-3a-((2-(4-(pyridin-3-ylsulfonyl)piperazin-1-yl)ethyl)amino)-2,3,3a,4,5,5a,5b,6,7,7a,8,11,11a,11b,12,13,13a,13b-octadecahydro-1H-cyclopenta[a]chrysen-9-yl)benzoic acid]: the EC50 under setting [1] is less than 100 nM.
On to `C=C(C)[C@@H]1CC[C@]2(NCc3ccc(F)cn3)CC[C@]3(C)[C@H](CC[C@@H]4[C@@]5(C)CC=C(c6ccc(C(=O)O)cc6)C(C)(C)[C@@H]5CC[C@]43C)[C@@H]12` [Example 133, 4-((1R,3aS,5aR,5bR,7aR,11aS,11bR,13aR,13bR)-3a-((5-fluoropyridin-2-yl)methylamino)-5a,5b,8,8,11a-pentamethyl-1-(prop-1-en-2-yl)-2,3,3a,4,5,5a,5b,6,7,7a,8,11,11a,11b,12,13,13a,13b-octadecahydro-1H-cyclopenta[a]chrysen-9-yl)benzoic acid], for which, under “NL43, luciferase activity in cells infected for 4-5 days with NLRluc recombinants, serial dilutions of inhibitor, numeric values, read-out: EC50”, the EC50 was 30 nM.
As for `C=C(C)[C@@H]1CC[C@]2(N)CC[C@]3(C)[C@H](CC[C@@H]4[C@@]5(C)CC=C(c6ccc(C(=O)O)cc6)C(C)(C)[C@@H]5CC[C@]43C)[C@@H]12` [Example 1, 4-((1R,3aS,5aR,5bR,7aR,11aS,11bR,13aR,13bR)-3a-amino-5a,5b,8,8,11a-pentamethyl-1-(prop-1-en-2-yl)-2,3,3a,4,5,5a,5b,6,7,7a,8,11,11a,11b,12,13,13a,13b-octadecahydro-1H-cyclopenta[a]chrysen-9-yl)benzoic acid], the EC50 under setting [1] is less than 100 nM.
Same read-out and setting: in the case of `C=C(C)[C@@H]1CC[C@]2(NC(=O)C(=O)O)CC[C@]3(C)[C@H](CC[C@@H]4[C@@]5(C)CC=C(c6ccc(C(=O)O)cc6)C(C)(C)[C@@H]5CC[C@]43C)[C@@H]12` [Example 130-1, 4-((1R,3aS,5aR,5bR,7aR,11aS,11bR,13aR,13bR)-3a-(carboxyformamido)-5a,5b,8,8,11a-pentamethyl-1-(prop-1-en-2-yl)-2,3,3a,4,5,5a,5b,6,7,7a,8,11,11a,11b,12,13,13a,13b-octadecahydro-1H-cyclopenta[a]chrysen-9-yl)benzoic acid] it was more than 100 nM; in that of `C=C(C)[C@@H]1CC[C@]2(NCCc3ccncc3)CC[C@]3(C)[C@H](CC[C@@H]4[C@@]5(C)CC=C(c6ccc(C(=O)O)cc6)C(C)(C)[C@@H]5CC[C@]43C)[C@@H]12` [Example 166, 4-((1R,3aS,5aR,5bR,7aR,11aS,11bR,13aR,13bR)-5a,5b,8,8,11a-pentamethyl-1-(prop-1-en-2-yl)-3a-((2-(pyridin-4-yl)ethyl)amino)-2,3,3a,4,5,5a,5b,6,7,7a,8,11,11a,11b,12,13,13a,13b-octadecahydro-1H-cyclopenta[a]chrysen-9-yl)benzoic acid], less than 100 nM; in that of `C=C(C)[C@@H]1CC[C@]2(NC(=O)N3CCNCC3)CC[C@]3(C)[C@H](CC[C@@H]4[C@@]5(C)CC=C(c6ccc(C(=O)O)cc6)C(C)(C)[C@@H]5CC[C@]43C)[C@@H]12` [Example 45, 4-((1R,3aS,5aR,5bR,7aR,11aS,11bR,13aR,13bR)-5a,5b,8,8,11a-pentamethyl-3a-(piperazine-1-carboxamido)-1-(prop-1-en-2-yl)-2,3,3a,4,5,5a,5b,6,7,7a,8,11,11a,11b,12,13,13a,13b-octadecahydro-1H-cyclopenta[a]chrysen-9-yl)benzoic acid], less than 100 nM.
Same read-out and setting: in the case of `C=C(C)[C@@H]1CC[C@]2(NCCNS(=O)(=O)C3CC3)CC[C@]3(C)[C@H](CC[C@@H]4[C@@]5(C)CC=C(c6ccc(C(=O)O)cc6)C(C)(C)[C@@H]5CC[C@]43C)[C@@H]12` [Example B31, 4-((1R,3aS,5aR,5bR,7aR,11aS,11bR,13aR,13bR)-3a-((2-(cyclopropanesulfonamido)ethyl)amino)-5a,5b,8,8,11a-pentamethyl-1-(prop-1-en-2-yl)-2,3,3a,4,5,5a,5b,6,7,7a,8,11,11a,11b,12,13,13a,13b-octadecahydro-1H-cyclopenta[a]chrysen-9-yl)benzoic acid] it was less than 100 nM.
Consider `C=C(C)[C@@H]1CC[C@]2(NC(=O)CN3CCCCC3C)CC[C@]3(C)[C@H](CC[C@@H]4[C@@]5(C)CC=C(c6ccc(C(=O)O)cc6)C(C)(C)[C@@H]5CC[C@]43C)[C@@H]12` (stereo partly drawn) [Example 124, 4-((1R,3aS,5aR,5bR,7aR,11aS,11bR,13aR,13bR)-5a,5b,8,8,11a-pentamethyl-3a-(2-(2-methylpiperidin-1-yl)acetamido)-1-(prop-1-en-2-yl)-2,3,3a,4,5,5a,5b,6,7,7a,8,11,11a,11b,12,13,13a,13b-octadecahydro-1H-cyclopenta[a]chrysen-9-yl)benzoic acid], for which, under setting [1], the EC50 is less than 100 nM.
`C=C(C)[C@@H]1CC[C@]2(NC(=O)N3CCNC(=O)C3CC(=O)O)CC[C@]3(C)[C@H](CC[C@@H]4[C@@]5(C)CC=C(c6ccc(C(=O)O)cc6)C(C)(C)[C@@H]5CC[C@]43C)[C@@H]12` (stereo partly drawn) [Example 56, 4-((1R,3aS,5aR,5bR,7aR,11aS,11bR,13aR,13bR)-3a-(2-(carboxymethyl)-3-oxopiperazine-1-carboxamido)-5a,5b,8,8,11a-pentamethyl-1-(prop-1-en-2-yl)-2,3,3a,4,5,5a,5b,6,7,7a,8,11,11a,11b,12,13,13a,13b-octadecahydro-1H-cyclopenta[a]chrysen-9-yl)benzoic acid]: the EC50 under setting [1] was less than 100 nM.
Still for that read-out and setting: in the case of `C=C(C)[C@@H]1CC[C@]2(NS(=O)(=O)Cc3ccccn3)CC[C@]3(C)[C@H](CC[C@@H]4[C@@]5(C)CC=C(c6ccc(C(=O)O)cc6)C(C)(C)[C@@H]5CC[C@]43C)[C@@H]12` [Example 131, 4-((1R,3aS,5aR,5bR,7aR,11aS,11bR,13aR,13bR)-5a,5b,8,8,11a-pentamethyl-1-(prop-1-en-2-yl)-3a-(pyridin-2-ylmethylsulfonamido)-2,3,3a,4,5,5a,5b,6,7,7a,8,11,11a,11b,12,13,13a,13b-octadecahydro-1H-cyclopenta[a]chrysen-9-yl)benzoic acid] it was less than 100 nM; in that of `CC(C)[C@@H]1CC[C@]2(NCCN3CCS(=O)(=O)CC3)CC[C@]3(C)[C@H](CC[C@@H]4[C@@]5(C)CC=C(c6ccc(C(=O)O)cc6)C(C)(C)[C@@H]5CC[C@]43C)[C@@H]12` [Example 163, 4-((1S,3aS,5aR,5bR,7aR,11aS,11bR,13aR,13bR)-3a-((2-(1,1-dioxido-4-thiomorpholinyl)ethyl)amino)-1-isopropyl-5a,5b,8,8,11a-pentamethyl-2,3,3a,4,5,5a,5b,6,7,7a,8,11,11a,11b,12,13,13a,13b-octadecahydro-1H-cyclopenta[a]chrysen-9-yl)benzoic acid], less than 100 nM.
On the same count and under the same terms, the same measure for `C=C(C)[C@@H]1CC[C@]2(NC(=O)N3CCN(C4CCN(C)CC4)CC3)CC[C@]3(C)[C@H](CC[C@@H]4[C@@]5(C)CC=C(c6ccc(C(=O)O)cc6)C(C)(C)[C@@H]5CC[C@]43C)[C@@H]12` [Example 40, 4-((1R,3aS,5aR,5bR,7aR,11aS,11bR,13aR,13bR)-5a,5b,8,8,11a-pentamethyl-3a-(4-(1-methylpiperidin-4-yl)piperazine-1-carboxamido)-1-(prop-1-en-2-yl)-2,3,3a,4,5,5a,5b,6,7,7a,8,11,11a,11b,12,13,13a,13b-octadecahydro-1H-cyclopenta[a]chrysen-9-yl)benzoic acid]: less than 100 nM; for `C=C(C)[C@@H]1CC[C@]2(N(CCN3CCS(=O)(=O)CC3)C(C)=O)CC[C@]3(C)[C@H](CC[C@@H]4[C@@]5(C)CC=C(c6ccc(C(=O)O)cc6)C(C)(C)[C@@H]5CC[C@]43C)[C@@H]12` [Example 178, 4-((1R,3aS,5aR,5bR,7aR,11aS,11bR,13aR,13bR)-3a-(acetyl(2-(1,1-dioxido-4-thiomorpholinyl)ethyl)amino)-1-isopropenyl-5a,5b,8,8,11a-pentamethyl-2,3,3a,4,5,5a,5b,6,7,7a,8,11,11a,11b,12,13,13a,13b-octadecahydro-1H-cyclopenta[a]chrysen-9-yl)benzoic acid]: less than 100 nM.
The same measure, in the same setting: the same measure for `C=C(C)[C@@H]1CC[C@]2(NC(=O)NC3(CN4CCCCC4)CC3)CC[C@]3(C)[C@H](CC[C@@H]4[C@@]5(C)CC=C(c6ccc(C(=O)O)cc6)C(C)(C)[C@@H]5CC[C@]43C)[C@@H]12` [Example 8, 4-((1R,3aS,5aR,5bR,7aR,11aS,11bR,13aR,13bR)-5a,5b,8,8,11a-pentamethyl-3a-(3-(1-(piperidin-1-ylmethyl)cyclopropyl)ureido)-1-(prop-1-en-2-yl)-2,3,3a,4,5,5a,5b,6,7,7a,8,11,11a,11b,12,13,13a,13b-octadecahydro-1H-cyclopenta[a]chrysen-9-yl)benzoic acid]: less than 100 nM.
